The assay deals with dopaminergic neuronal cell line. Nature of the assay: High Glutamate-Induced Oxidative Stress Assay (HGOS). Format: cell-based. Conditions: Mus musculus; 30 mM glutamate, 16 h, Cell Tracker Green; read-out: protection against HGOS cell injury and cell death with an EC50. The text has this: Protection against redox stress can be evaluated in cell culture using high glutamate induced oxidative stress (HGOS) in mouse dopaminergic cell lines. The cytotoxic effect of glutamate is not due to excitotoxicity, as this cell line is devoid of inotropic glutamate receptors. Rather, the glutamate-induced toxicity of dopaminergic cells is associated with an inhibition of cystne transport which subsequently leads to depletion of intracellular glutathione (GSH) levels (Murphy T. H., et al. Neuron, Vol. 2 (1989), pp. 1547-1558), activation of neuronal 12-Lipoxygenase (Li, Y. et al. Neuron, Vol. 19 (1997), pp. 453-463), increased ROS production (Tan S. et al. J. Cell Biol., Vol. 141 (1998), pp. 1423-1432) and elevated intracellular Ca^2+ (Li, Y. et al. see supra). Some molecules were measured for their ability to protect cells against glutamate-induced stress and the assay is detailed in Examples.
This procedure was used to induce high glutamate-induced oxidative stress (HGOS) in a dopaminergic neuronal cell line. Using this assay the potency and efficacy of test articles against HGOS neuronal cell injury and cell death was established in a high throughput manner.
• Dopaminergic neuronal cell lines • DMEM-No Glucose (Life Technologies Cat # 11966-025) • L-glutamine (Life Technologies Cat # 25030-081) • L-glutamic acid, monosodium salt (Sigma Cat # G5889) • D-glucose (Sigma Cat # G-6151) • 10×HBSS buffer(pH 7.4) (950 mL Pyrogen-free water, 2.44 g/L MgCl2.6H20, 3.73 g/L KCl, 59.58 g/L Hepes, 58.44 g/L NaCI, 1.36 g/L KH2PO4, 1.91 g/L CaCl2.2H2O and pH to […] with HCl) • Cell Tracker Green fluorescent dye (Molecular Probes, Cat # 2925). Prepare a 5 μM solution in pre-warmed HBSS just prior to use. • Sterile 96-well plates pre-coated with poly-D-lysine (Corning Catalog # 3665) • 96-well deep well mother plate, DyNA Block 1000 (VWR Catalog # 40002-008) Neuronal Cells
The cells were seeded into 96-well plates at a density of 2000 per well and left to grow for 72 hours in a 33° C. incubator with 5% CO2 in air atmosphere. […]
What is called EC50 is the concentration at which the effect is half-maximal. As for `Cc1c(C)c2c(c(Cl)c1O)CCC1(CCC1)O2` [5-chloro-7,8-dimethyl-3,4-dihydrospiro[chromene-2,1′-cyclobutan]-6-ol], the EC50 is under 1 µM.

Turning to `Cc1c(C)c2c(c(C)c1O)C1(CCC1)CCS2` [5′,7′,8′-trimethyl-2′,3′-dihydrospiro[cyclobutane, 1,4′-thiochromen]-6′-ol], the EC50 is under 1 µM.

For the compound `Cc1c(C)c2c(c(C)c1O)CCC1(CC1)O2` [5,7,8-trimethyl-3,4-dihydrospiro[chromene-2,1′-cyclopropan]-6-ol], the EC50 is under 1 µM.
